Experimental data taken from US8828974B2, “Substituted propane phosphinic acid derivatives” (Aventis Pharmaceuticals Inc., priority 2004, dated 2014).

Assays:
Male Wistar rats = assay: Chronic Mild Stress Model (CMS), sucrose consumption; assay type: in vivo, rat; conditions: 3 and 30 mg/kg orally, daily for five weeks; imipramine 10 mg/kg ip
Method: The following CMS study is performed using the parent compound 1 (hereafter “compound 1”) in comparison to known anti-depressant compound imipramine.
Male Wistar rats are brought into the laboratory two months before the start of the experiment at which time they weighed approximately 300 grams. Except as described below, the animals are singly housed, with food and water freely available, and maintained on a 12 hour light/dark cycle (lights on at 8 AM) at a temperature of about 22° C.
The animals are first trained to consume a 1% sucrose solution; training consists of eight 1 hour baseline tests in which sucrose is presented, in the home cage, following 14 hours food and water deprivation; intake is measured by weighing pre-weighed bottles containing the sucrose solution at the end of the test. Subsequently, sucrose consumption is monitored, under similar conditions, at weekly intervals throughout the whole experiment.
On the basis of their sucrose intakes in the final baseline test, the animals are divided into two matched groups. One group of animals is subjected to a chronic mild stress procedure for a period of 9 consecutive weeks. […]
Results are analyzed by multiple analysis of variance, followed by Fisher's LSD test for post hoc comparisons of means.

[1] = Relative bioavailability of parent compound 1 in plasma and brain after oral gavage in mice (Example 39); assay type: in vivo, Male CD1 mice; conditions: mouse brain samples 2, 4 and 7 hrs post-dose, LC/MS/MS
Method: Animals: Male CD1 mice (Charles River) weighing about 25 g—with free access to food and water.
Dose Groups: The compounds of this invention were administered to the test animals at a dose, which is molar equivalent to 10 mg/kg of the parent compound 1, ((R)-3-amino-2-hydroxy-propyl)-cyclohexylmethyl-phosphinic acid. Each of the test compounds was formulated at this dose level to yield a dose volume of 10 mL/kg and administered by oral gavage to a group of three mice per time point in each study group.
Formulations: The compounds of this invention were dissolved in vehicle of 0.2% Tween 80 and 0.5% methylcellulose (MC) at a concentration of about 1 mg/mL.
Samples: The blood samples (for plasma) were collected at the following time points: 5, 15 30 and 45 min […]; and 1, 2, 3, 4, 5, and 7 hrs post-dose. Brains were collected at 2, 4 and 7 hrs post-dose
Blood Handling: The blood samples were added to tubes containing 20 μL of a stock 10 mg/ml solution of sodium fluoride. The blood tubes were then stored in a refrigerator at approximately about 4° C. The volume of blood in each of these samples was about 0.4 mL. The samples were then centrifuged in a refrigerated centrifuge. […]
Bioanalysis: All plasma and brain samples were then analyzed for concentrations of the test compound as well as the parent compound 1, ((R)-3-amino-2-hydroxy-propyl)-cyclohexylmethyl-phosphinic acid by LC/MS/MS. […]

NC[C@@H](O)CP(=O)(O)CC1CCCCC1 [compound 1, ((R)-3-amino-2-hydroxy-propyl)-cyclohexylmethyl-phosphinic acid]
activity in CMS (sucrose intake) compared with imipramine (Male Wistar rats): equal to that of imipramine | concentration of the parent compound 1 in brain [1]: proportional to the concentration of the parent compound in plasma
